Data from patent US6777193B1, “Methods for diagnostic and/or treatment of antiphospholipids antibodies-related diseases, and devices” (Escuela Nacional de Ciencias Biologicas, del Instituto …, priority 2000, dated 2004).
One block for each molecule: values may come before it.

Experiments:
[1] = system: Ag4 mouse myeloma cells; test: Stabilization of cellular membranes (cytofluorometry); format: cell-based; details: chlorpromazine 0.2 mM plus stabilizer drug; for development of lipidic particles in Ag4 cellular membranes: 30 min
Experimental: The reaction of these stabilized Ag4 mouse myeloma cells with […] monoclonal antibody was analyzed by the cytofluorometry method in a FACSCalibur Flow Cytometer equipped with a single […] argon laser beam (Beckton Dickinson). Relative size and/or Ag4 mouse myeloma cells aggregation were analyzed in the FSC channel and the granularity or cellular membranes complexity in the SSC channel. Analysis of 10,000 […] mouse myeloma cells was made with the following detectors: FSC in […] in lineal mode with an amplifier gain of 2 V, with a detector compensation threshold of 52 V, and SSC of 250 V. The obtained data were analyzed with the Cellquest program (Beckton Dickinson).

[2] = system: BALB/c female mice; test: Treatment of the pathology induced by H308 monoclonal antibody in mice; format: in vivo, mouse; details: for therapeutically effective quantity: of body weight, BALB/c female mice given H308
Experimental: H308 monoclonal antibody was administered by intraperitoneal injection of 1 μg each week during two months to BALB/c female mice, and simultaneously the glycerolphosphorylcholine hapten was administered at 2.5 mg/Kg, of body weight, doses by intravenous injection each 24 hs, for 2-months.
Spermidine was administered, as chlorhydrate, in a dose of 1 mg/Kg, of body weight, by intraperitoneal injection each 24 hs, during two months.

[3] = system: egg-yolk phosphatidylcholine:phosphatidate (2:1 molar ratio) liposomes; test: Stabilization of liposomal membranes (liposomal cytofluorometry, SSC/FSC); details: without chlorpromazine
[4] = system: Ag4 mouse myeloma cells; test: Lipidic particles reversion in cells; format: cell-based; details: chlorpromazine 0.2 mM for 30 min before stabilizer drug
Experimental: (§1) Examples 7 and 7A were repeated using as antigens egg-yolk phosphatidylcholine:phosphatidate (2:1 molar ratio) liposomes, in Tris-NaCl buffer (10 mM, 1 mM) pH 7, and containing 0.1 μmol of phosphatidate, or Ag4 mouse myeloma cells. […] Stabilizer drugs were used at the concentrations used in Example 7A.

[5] = system: egg-yolk phosphatidylcholine:phosphatidate (2:1 molar ratio) liposomes; test: Lipidic particles reversion in liposomes; details: chlorpromazine 0.2 mM for 30 min before stabilizer drug
Experimental: as §1

[6] = system: egg-yolk phosphatidylcholine:phosphatidate (2:1 molar ratio) liposomes; test: Stabilization of liposomal membranes (liposomal cytofluorometry, SSC/FSC); details: for concentration effective in stabilizing lipidic bilayers: blocks lipidic particles induced by chlorpromazine at 0.2 mM and 0.6 mM; for lipidic particles formation and liposomal aggregation, simultaneous incubation with chlorpromazine: liposomes incubated simultaneously with chlorpromazine and stabilizer drug; for reaction of stabilized liposomes with H308 monoclonal antibody: liposomes incubated with chlorpromazine and stabilizer drug
Experimental: In relation to the stabilization of membranes with drugs that avoid the formation of lipidic particles in liposomal model membranes or in cellular membranes, which in turn avoid the subsequent union of anti-lipidic particles antibodies, the studies were carried out with liposomal or cellular antigens using the cytofluorometry method. In a favorite modality this method includes the following steps:
A) A first step of incubation, in which the antigen suspension, liposomes or cells, are incubated with a drug that stabilizes its lipidic bilayers, this drug being used at a concentration of 0.1 up to 100 mM, the obtained mixture is incubated for 0.25 to 2 h at a temperature between 35 and 40° C.
These studies were carried out with a modification in the liposomal cytofluorometry method with liposomes made from egg-yolk phosphatidylcholine:phosphatidate (2:1 molar ratio) in Tris-NaCl buffer (10 mM, 1 mM) pH 7, containing 0.1 μmol of phosphatidate, and treated with 0.2 mM chlorpromazine to induce lipidic particles formation, as antigens.
Liposomal preparations were incubated for 30 min at room temperature and were used as antigens. The reaction of these stabilized liposomes with H308 monoclonal antibody was analyzed by the liposomal cytofluorometry method as was described in Example 2A, in a FACSCalibur Flow Cytometer equipped with a single 488 nm argon laser beam (Beckton Dickinson).
Relative size and/or liposomal aggregation were analyzed in the FSC channel and the granularity or liposomal bilayers complexity in the SSC channel. Analysis of 10,000 liposomes was made in a logarithmic mode with the following detectors: FSC in E00, with a detector compensation threshold of 52 V and SSC of 401 V (Baeza et al., op. cit., 1995). The obtained data were analyzed with the Cellquest program (Beckton Dickinson).

[7] = system: BALB/c female mice; test: Induction of anti-lipidic particles antibodies and pathology in immunized/treated mice; format: in vivo, mouse; details: for pathology developed in BALB/c female mice: after immunization or treatment as in Examples 4A-4C; for immunized BALB/c female mice that produced anti-lipidic particles antibodies: intramuscular, chlorpromazine 3 mg/Kg or procainamide 10 mg/Kg each 24 hs for 2-months
Experimental: Ten, 2-months age, BALB/c female mice were immunized by intrasplenic injection of 100 μg of egg-yolk phosphatidylcholine:phosphatidate liposomes (2:1 molar ratio) in Tris-NaCl buffer (10 mM, 1 mM) pH 7, containing 0.1 μmol of phosphatidate, and treated with MnCl2 5 mM to induce lipidic particles formation. Intrasplenic immunization was repeated 2-weeks later by the method described by Nilsson et al. (op. cit. 1987). Additionally, BALB/c female mice were intraperitoneally injected with the same liposomes dose 2-weeks later, then they were boosted 4-times at 2-weeks intervals.
After seven days of the last immunization female mice were bled from the orbital sinus to analyze the presence of anti-lipidic particles antibodies in the obtained sera. Using this immunization procedure, 60% of the immunized BALB/c female mice produced anti-lipidic particles antibodies.
Ten, 2-months age, BALB/c female mice were immunized by intrasplenic injection of 100 μg of egg-yolk phosphatidylcholine:phosphatidate liposomes (2:1 molar ratio) in Tris-NaCl buffer (10 mM, 1 mM) pH 7, containing 0.1 μmol of phosphatidate, and treated with the lipidic particles inducer drug procainamide at a concentration of 8 mM. Immunization was carried out as it was indicated in Example 4. After seven days of the last immunization female mice were bled from the orbital sinus to analyze the presence of anti-lipidic particles antibodies in the obtained sera. Using this immunization procedure, 70% of the immunized BALB/c female mice produced anti-lipidic particles antibodies.
Ten, 2-months age, BALB/c female mice were immunized by intramuscular injection of the lipidic particles inducer drugs chlorpromazine or procainamide, using 3 mg/Kg, of body weight, for chlorpromazine and 10 mg/Kg, of body weight, for procainamide, each 24 hs, for 2-months. Drug doses were similar to those that are administered in the medical treatment of humans; in psychotic and maniacs dysfunctions for chlorpromazine and those that were used for the treatment of cardiac arrhythmias for procainamide.
After seven days of the last intramuscular injection female mice were bled from the orbital sinus to analyze the presence of anti-lipidic particles antibodies in the obtained sera. Using this immunization procedure, 50% of the immunized BALB/c female mice produced anti-lipidic particles antibodies.
Ten, 2-months age, BALB/c female mice were immunized by intraperitoneal injection of 1 μg of anti-lipidic particles H308 monoclonal antibody, each week, for 2-months. After seven days of the last intraperitoneal injection female mice were bled from the orbital sinus to analyze the presence of anti-lipidic particles antibodies in the obtained sera. […]

[8] = system: H308 monoclonal antibody; test: Inhibition of H308 monoclonal antibody by phosphorylated haptens (liposomal-ELISA); format: binding, mouse; details: for inhibition of H308 monoclonal antibody reaction with lipidic particles in liposomes: hapten 0.2 to 1.0 μmol
Experimental: Studies on inhibition of anti-lipidic particles antibodies were carried out using liposomes as antigens and the antigen-antibody reaction was analyzed by the liposomal-ELISA method, which includes the following steps:
A) A first step of addition and incubation, in which an effective quantity of an antigen suspension is added to each one of the wells of the ELISA microtiter plate. This microtiter plate is selected among those with a high lipidic antigens binding property and said microtiter plate is incubated between 25 to 30° C. for 0.25 to 2 h.
B) A second step of addition and incubation, in which an effective quantity of a blocking solution is added to each one of the wells of the ELISA microtiter plate with a high lipidic antigens binding property, and said microtiter plate being incubated at a temperature between 25 to 30° C. for 0.25 to 2 h.
C) A step of elimination of blocking solution, preferably by suction, avoiding that microtiter plate becomes dry when blocking solution is eliminated, because liposomal antigens can be damaged.
D) A step of inhibition of the antibody porter, in which the antibody porter is incubated with a chemical substance, or hapten, that will inhibit the active site that recognizes the antigen in the antibody porter.
E) A third step of addition and incubation, in which an effective quantity of the antibody porter inhibited by the hapten was quickly added, to avoid that microtiter plate becomes dry, to each one of the wells using an antibody porter dilution from 1:5 to 1:1000 into blocking solution. This microtiter plate being incubated for 0.25 to 2 h at a temperature between 25 to 30° C.
F) A first step of washing, in which the microtiter plate is washed with the blocking solution, preferably repeating 4-times and avoiding that microtiter plate becomes dry when eliminating the blocking solution.
G) A fourth step of addition and incubation, in which an effective quantity of a second antibody is added to each one of the wells of microtiter plate. This plate is incubated in the darkness for 0.25 to 2 h at a temperature between 25 to 30° C. Second antibody is selected preferably among antibodies from a different specie to that of the antibody porter and they can be anti-Fc of human IgG, IgA and IgM or of the animal in study, or antibodies anti-Fc of IgM or of IgG depending on the nature of the monoclonal antibody when this is the antibody porter. Second antibody is used in a final dilution into blocking solution between […] and 1:3500 and it is conjugated to an enzyme preferably to peroxidase.
H) A second step of washing, in which the microtiter plate is washed with the blocking solution, preferably repeating 4-times and avoiding that microtiter plate becomes dry when eliminating the blocking solution.
I) A fifth step of addition and incubation, in which an effective quantity of the peroxidase sustrates is added to each one of the wells and this microtiter plate is incubated for 0.1 to 0.5 h at a temperature between .35 and 40° C., stopping the peroxidase reaction by adding an effective quantity of sulfuric acid.
J) A step of analysis, in which microtiter plate is analyzed using a reading device for ELISA plates, preferably at 492 nm.
In a specific embodiment, the hapten solution is obtained dissolving hapten in a buffer solution at pH between 7.0 and 7.4, in a relationship from 0.1 to 10 mmoles of hapten per liter of buffer solution.
Costar microtiter plates, with 96 flat-bottom wells with a high lipidic antigens binding property (Costar Co. Cambrige, USA) were coated by the addition to each one of the wells of 100 μl of liposomes made from egg-yolk phosphatidylcholine:phosphatidate (2:1 molar ratio) in Tris-NaCl buffer (10 mM, 1 mM) pH 7, containing 0.1 μmol of phosphatidate, and treated with 5 mM CaCl2 to induce lipidic particles formation. Microtiter plates were incubated at room temperature for 1 h and they were blocked for 1 h at room temperature in a similar way as was described in Example 1. […]

SMILES: NCCCCNCCCN [spermidine]
- reaction of stabilized Ag4 cells with H308 monoclonal antibody [1]: do not react with the H308 monoclonal antibody
- development of lipidic particles in Ag4 cellular membranes [1]: do not develop lipidic particles with chlorpromazine
- development of mice pathology induced by H308 monoclonal antibody ([2]; as chlorhydrate, 1 mg/Kg intraperitoneal each 24 hs, two months): results similar to those described with chloroquine
- therapeutically effective quantity [2]: 1 mg/kg
- change in liposomal aggregation and liposomal bilayers complexity, stabilizer drug alone [3]: do not produce any change
- reversion of lipidic particles and cellular aggregation caused by chlorpromazine [4]: reverted
- reversion of lipidic particles and liposomal aggregation caused by chlorpromazine [5]: reverted
- concentration effective in stabilizing lipidic bilayers [6]: 5 µM
- lipidic particles formation and liposomal aggregation, simultaneous incubation with chlorpromazine [6]: there were not lipidic particles formation neither liposomal aggregation
- reaction of stabilized liposomes with H308 monoclonal antibody [6]: do not react with H308 monoclonal antibody

- immunized BALB/c female mice that produced anti-lipidic particles antibodies [7]: 50%
SMILES: CN(C)CCCN1c2ccccc2Sc2ccc(Cl)cc21 [chlorpromazine]
- pathology developed in BALB/c female mice [7]: development of a pathology similar to the human antiphospholipid syndrome secondary to systemic lupus erythematosus
- increase in SSC and FSC values (lipidic particles and liposomal aggregation) ([6]; 0.2 mM): 100 fold
- SSC values ([6]; graph B, FIG. 16, presence of lipidic particles): higher than 1000 units

- immunized BALB/c female mice that produced anti-lipidic particles antibodies [7]: 50%
SMILES: CCN(CC)CCNC(=O)c1ccc(N)cc1 [procainamide]
- pathology developed in BALB/c female mice [7]: development of a pathology similar to the human antiphospholipid syndrome secondary to systemic lupus erythematosus

SMILES: NC(COP(=O)(O)O)C(=O)O (stereo not drawn) [phosphorylserine]
- inhibition of H308 monoclonal antibody reaction with lipidic particles in liposomes [8]: do not cause any inhibition

SMILES: N[C@@H](COP(=O)(O)OCC(O)CO)C(=O)O (stereo partly drawn) [glycerolphosphorylserine]
- inhibition of H308 monoclonal antibody reaction with lipidic particles in liposomes [8]: do not cause any inhibition

SMILES: NCCOP(=O)(O)O [phosphorylethanolamine]
- inhibition of H308 monoclonal antibody reaction with lipidic particles in liposomes [8]: do not cause any inhibition

SMILES: CCN(CC)CCCC(C)Nc1ccnc2cc(Cl)ccc12 (stereo not drawn) [chloroquine]
- reaction of stabilized Ag4 cells with H308 monoclonal antibody [1]: do not react with the H308 monoclonal antibody
- development of lipidic particles in Ag4 cellular membranes [1]: do not develop lipidic particles with chlorpromazine
- therapeutically effective quantity [2]: 2.5 mg/kg
- change in liposomal aggregation and liposomal bilayers complexity, stabilizer drug alone [3]: do not produce any change
- reversion of lipidic particles and cellular aggregation caused by chlorpromazine [4]: reverted
- reversion of lipidic particles and liposomal aggregation caused by chlorpromazine [5]: reverted
- concentration effective in stabilizing lipidic bilayers [6]: 0.1 µM
- lipidic particles formation and liposomal aggregation, simultaneous incubation with chlorpromazine [6]: there were not lipidic particles formation neither liposomal aggregation
- reaction of stabilized liposomes with H308 monoclonal antibody [6]: do not react with H308 monoclonal antibody

SMILES: C[N+](C)(C)CCOP(=O)(O)O [phosphorylcholine]
- absorbance at 492 nm of H308 immunoreaction ([8]; 0.6 μmoles of hapten): 0.06
- inhibition in immunoreaction of H308 monoclonal antibody ([8]; 0.6 μmoles of hapten, with regard to reaction in absence of hapten): 82%
